Data as given in ChEMBL document CHEMBL5244238, “Targeting mTOR for fighting diseases: A revisited review of mTOR inhibitors” (Eur J Med Chem, 2020).
Blank lines part the entries; values can stand above or below the compound they belong to.

What was measured:
[1] = molecular target: Serine/threonine-protein kinase mTOR (Homo sapiens, UniProt P42345)
Description: Inhibition of mTOR (unknown origin)

[2] = system: A549; test: cells; details: Homo sapiens
Description: Antiproliferative activity against human A549 cells

[3] = system: MCF7; test: Antiproliferative activity against human MCF7 cells; format: functional, cell-based
[4] = system: MIA PaCa-2; test: cells; details: Homo sapiens
Description: Antiproliferative activity against human MIA PaCa-2 cells

[5] = system: CAKI-1; test: cells; details: Homo sapiens
Description: Antiproliferative activity against human CAKI-1 cells

[6] = system: HeLa; test: cells; details: Homo sapiens
Description: Antiproliferative activity against human HeLa cells

[7] = system: PC-3; test: cells; details: Homo sapiens
Description: Antiproliferative activity against human PC-3 cells

[8] = clinical; details: human
[9] = species: Homo sapiens; test: Selectivity index, ratio of IC50 for PI3Kalpha (unknown origin) to IC50 for mTOR (unknown origin); format: functional

IC50 [1]: < 1 µM
Structure (SMILES): CCOC(=O)N1Cc2nc(-c3ccc(NC(=O)NC4CC4)cc3)nc(N3CCOC[C@@H]3C)c2C1

IC50 [2]: 8 µM
IC50 [3]: 2 µM
Structure (SMILES): CCc1ccc(C(=O)c2cnc3cc4c(cc3c2N2CCC(C(N)=O)CC2)OCCO4)cc1

IC50 [1]: < 1 µM
Structure (SMILES): C[C@H]1COCCN1c1nc(-c2ccc(NC(=O)NCC(F)F)cc2)cc(-c2cc(F)ccc2S(C)(=O)=O)n1

IC50 [1]: 0.095 µM
Structure (SMILES): O=C(c1ccc(C(=O)C(F)(F)F)cc1)N1CCOc2ccc(-c3cnc4ccccc4c3)cc2C1
Ratio IC50 [9]: 4

IC50 [1]: 0.016 µM
Structure (SMILES): COc1ccc(C2Cc3c(C)nc(N)nc3N([C@H]3CC[C@H](OCCO)CC3)C2=O)cn1 (some centres undefined)

Second part, the compound before the results:

Structure (SMILES): CO[C@H]1C[C@@H]2CC[C@@H](C)[C@@](O)(O2)C(=O)C(=O)N2CCCC[C@H]2C(=O)O[C@H]([C@H](C)C[C@@H]2CC[C@@H](OCCO)[C@H](OC)C2)CC(=O)[C@H](C)/C=C(\C)[C@@H](O)[C@@H](OC)C(=O)[C@H](C)C[C@H](C)/C=C/C=C/C=C/1C [EVEROLIMUS]
IC50 [1]: 0.005 µM

Structure (SMILES): CCCc1nn(C)c2c(=O)[nH]c(-c3cc(OC)cc(OC)c3)nc12
IC50 [4]: 24 µM
IC50 [2]: 14 µM
IC50 [5]: 17 µM
IC50 [6]: 19 µM
IC50 [7]: 38 µM

Structure (SMILES): CO[C@H]1C[C@@H]2CC[C@@H](C)[C@@](O)(O2)C(=O)C(=O)N2CCCC[C@H]2C(=O)O[C@H]([C@H](C)C[C@@H]2CC[C@@H](O)[C@H](OC)C2)CC(=O)[C@H](C)/C=C(\C)[C@@H](O)[C@@H](OC)C(=O)[C@H](C)C[C@H](C)/C=C/C=C/C=C/1C [SIROLIMUS]
half-life [8]: 40 h
